Each structure is given as a SMILES string. pIC50: −log10 of the molar value. Some results are limits rather than exact numbers.

In the test the target is T1, IDO1 (Homo sapiens, UniProt P14902).
T1 construct: BxPC3 cells were seeded in phenol red-free RPMI 1640 medium; endogenous in cells; host or cells: BxPC3 cells stimulated with IFN-γ (50 ng/mL)
T1 sequence (P14902 whole entry): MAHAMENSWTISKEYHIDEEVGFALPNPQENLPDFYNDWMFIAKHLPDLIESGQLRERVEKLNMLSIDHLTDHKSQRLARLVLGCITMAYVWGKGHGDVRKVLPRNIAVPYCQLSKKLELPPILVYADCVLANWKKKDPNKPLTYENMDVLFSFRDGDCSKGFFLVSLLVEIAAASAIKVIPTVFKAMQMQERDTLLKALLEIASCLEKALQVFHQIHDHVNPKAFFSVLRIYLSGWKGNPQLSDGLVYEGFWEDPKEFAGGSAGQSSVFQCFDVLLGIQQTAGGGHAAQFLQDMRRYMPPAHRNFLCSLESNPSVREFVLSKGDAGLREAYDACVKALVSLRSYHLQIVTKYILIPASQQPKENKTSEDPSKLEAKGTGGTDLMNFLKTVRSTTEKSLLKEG
Kind of test: Kyn assay in BxPC-3 cells (Kyn levels after IFN-γ and Trp).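 Further: kyn levels expressed relative to DMSO-treated control cells.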 Type of test: cell-based. The following applies: BxPC-3 cells incubated with IFN-γ, Trp and the compounds for 48 h; read-out: Kyn assay IC50 ± SD.
Protocol: BxPC3 cells were seeded in phenol red-free RPMI 1640 medium in 1536-well or 384-well plates (Greiner #782086, Corning #3770) 24 h prior to the addition of compounds, IFN-γ (50 ng/mL, PeproTech) and L-Trp (380 µM, Sigmal-Aldrich). After 48 h of incubation, first cell viability was accessed by the addition of Hoechst-33342. Afterwards, trichloroacetic acid (TCA, Sigma-Aldrich) was added to a final concentration of 7 % and incubated for 10 min prior to a centrifugation step of 10 min at 1620 × g. Kyn levels were determined by means of the Kyn sensor^7 at a final concentration of 17.5 µM in sensor buffer (50 mM H3PO4 and 120 mM NaCl (pH=1)). Fluorescence intensity (excitation: 535 nm, emission: 595 nm) was measured using a Spectramax Paradigm reader (Molecular Devices). Data were normalized to the values for cells that were treated with DMSO.
For the manual assay, BxPC3 or SKOV3 cells were seeded in clear 96-well or 384-well plates, respectively, 24 h prior to compound treatment and IFN-γ (50 or 5 ng/mL, respectively) and L-Trp (380 µM) addition as described before.^7 48 h after treatment, TCA was added and Kyn levels were detected by means of 2 % w/v of p-DMAB (Ehrlich reagent) in acetic acid as described by Braun et al^29. The absorbance of the Ehrlich reagent was detected at 492 nm and at 650 nm as background control was measured on Spark® multimode microplate plate reader (Tecan, Austria). Kyn levels were determined by subtracting the absorbance value at 650 nm and presented relative to the DMSO control. Dose-response curves and IC50 values were generated and fitted with GraphPad Prism 6.0 (GraphPad software, USA) using four-parameter variable slope non-linear regression curve fit.
Cells were incubated with IFN-γ, Trp and the compounds for 48 h prior to detection of Kyn levels.
As usually defined, the pIC50 is −log10 of the IC50, conventionally taken in molar units. As for `CCc1ccc(NC(=O)OC[C@]23CN(S(=O)(=O)c4ccc(C(C)(C)C)cc4)C[C@H]2C[C@H]2C[C@@H]3C2(C)C)cc1` [compound 2, ((3aS,4R,6R,7aS)-2-((4-(tert-butyl)phenyl)sulfonyl)-5,5-dimethyloctahydro-3aH-4,6-methanoisoindol-3a-yl)methyl (4-ethylphenyl)carbamate], the pIC50 was 5.30 to 6.00.
Regarding `CC(C)(C)c1ccc(S(=O)(=O)N2C[C@H]3C[C@H]4C[C@H](C4(C)C)[C@@]3(COC(=O)Nc3ccccc3)C2)cc1` [compound 6, ((3aS,4R,6R,7aS)-2-((4-(tert-butyl)phenyl)sulfonyl)-5,5-dimethyloctahydro-3aH-4,6-methanoisoindol-3a-yl)methyl phenylcarbamate], the pIC50 was 5.00 to 5.30.
On to `Cc1ccc(NC(=O)OC[C@]23CN(S(=O)(=O)c4ccc(C(C)(C)C)cc4)C[C@H]2C[C@H]2C[C@@H]3C2(C)C)c(C)c1` [compound 7, ((3aS,4R,6R,7aS)-2-((4-(tert-butyl)phenyl)sulfonyl)-5,5-dimethyloctahydro-3aH-4,6-methanoisoindol-3a-yl)methyl (2,4-dimethylphenyl)carbamate], for which the pIC50 is 5.30 to 6.00.
As to `CC(C)(C)c1ccc(S(=O)(=O)N2C[C@H]3C[C@H]4C[C@H](C4(C)C)[C@@]3(COC(=O)Nc3ccc(Cl)cc3)C2)cc1` [compound 9, ((3aS,4R,6R,7aS)-2-((4-(tert-butyl)phenyl)sulfonyl)-5,5-dimethyloctahydro-3aH-4,6-methanoisoindol-3a-yl)methyl (4-chlorophenyl)carbamate], the pIC50 was 6.00 to 6.70.
The result for `CC(C)(C)c1ccc(S(=O)(=O)N2C[C@H]3C[C@H]4C[C@H](C4(C)C)[C@@]3(COC(=O)Nc3ccc(Br)cc3)C2)cc1` [compound 10, ((3aS,4R,6R,7aS)-2-((4-(tert-butyl)phenyl)sulfonyl)-5,5-dimethyloctahydro-3aH-4,6-methanoisoindol-3a-yl)methyl (4-bromophenyl)carbamate] reads 6.00 to 6.70.
`CC(C)(C)c1ccc(S(=O)(=O)N2C[C@H]3C[C@H]4C[C@H](C4(C)C)[C@@]3(COC(=O)Nc3ccccc3I)C2)cc1` [compound 12, ((3aS,4R,6R,7aS)-2-((4-(tert-butyl)phenyl)sulfonyl)-5,5-dimethyloctahydro-3aH-4,6-methanoisoindol-3a-yl)methyl (2-iodophenyl)carbamate]: the pIC50 is 6.00 to 6.70.
The result for `CC(C)(C)c1ccc(S(=O)(=O)N2C[C@H]3C[C@H]4C[C@H](C4(C)C)[C@@]3(COC(=O)Nc3ccccc3Br)C2)cc1` [compound 13, ((3aS,4R,6R,7aS)-2-((4-(tert-butyl)phenyl)sulfonyl)-5,5-dimethyloctahydro-3aH-4,6-methanoisoindol-3a-yl)methyl (2-bromophenyl)carbamate] reads 6.00 to 6.70; that for `CC(C)(C)c1ccc(S(=O)(=O)N2C[C@H]3C[C@H]4C[C@H](C4(C)C)[C@@]3(COC(=O)Nc3cccc(Br)c3)C2)cc1` [compound 14, ((3aS,4R,6R,7aS)-2-((4-(tert-butyl)phenyl)sulfonyl)-5,5-dimethyloctahydro-3aH-4,6-methanoisoindol-3a-yl)methyl (3-bromophenyl)carbamate], 5.00 to 5.30; that for `CC(C)(C)c1ccc(S(=O)(=O)N2C[C@H]3C[C@H]4C[C@H](C4(C)C)[C@@]3(COC(=O)Nc3ccc(C#CCCO)cc3)C2)cc1` [compound 18, ((3aS,4R,6R,7aS)-2-((4-(tert-butyl)phenyl)sulfonyl)-5,5-dimethyloctahydro-3aH-4,6-methanoisoindol-3a-yl)methyl (4-(4-hydroxybut-1-yn-1-yl)phenyl)carbamate], 5.30 to 6.00.
`COc1ccc(NC(=O)OC[C@]23CN(S(=O)(=O)c4ccc(C(C)(C)C)cc4)C[C@H]2C[C@H]2C[C@@H]3C2(C)C)cc1` [compound 20, ((3aS,4R,6R,7aS)-2-((4-(tert-butyl)phenyl)sulfonyl)-5,5-dimethyloctahydro-3aH-4,6-methanoisoindol-3a-yl)methyl (4-methoxyphenyl)carbamate]: the pIC50 was 5.30 to 6.00.
The figure for `CC(C)(C)c1ccc(S(=O)(=O)N2C[C@H]3C[C@H]4C[C@H](C4(C)C)[C@@]3(COC(=O)Nc3ccc(C#N)cc3)C2)cc1` [compound 23, ((3aS,4R,6R,7aS)-2-((4-(tert-butyl)phenyl)sulfonyl)-5,5-dimethyloctahydro-3aH-4,6-methanoisoindol-3a-yl)methyl (4-cyanophenyl)carbamate] is 5.30 to 6.00; for `Cc1ccc(NC(=O)OC[C@]23CN(S(=O)(=O)C(C)C)C[C@H]2C[C@H]2C[C@@H]3C2(C)C)cc1` [compound 30, ((3aS,4R,6R,7aS)-2-(isopropylsulfonyl)-5,5-dimethyloctahydro-3aH-4,6-methanoisoindol-3a-yl) methyl p-tolylcarbamate] it is 5.30 to 6.00.
With `Cc1ccc(NC(=O)OC[C@]23CN(S(=O)(=O)C4CCCCC4)C[C@H]2C[C@H]2C[C@@H]3C2(C)C)cc1` [compound 31, ((3aS,4R,6R,7aS)-2-(cyclohexylsulfonyl)-5,5-dimethyloctahydro-3aH-4,6-methanoisoindol-3a-yl)methyl p-tolylcarbamate], the pIC50 is 5.00 to 5.30.
Consider `Cc1ccc(NC(=O)OC[C@]23CN(S(=O)(=O)c4ccc(C(F)(F)F)cc4)C[C@H]2C[C@H]2C[C@@H]3C2(C)C)cc1` [compound 32, ((3aS,4R,6R,7aS)-5,5-dimethyl-2-((4-(trifluoromethyl)phenyl)sulfonyl)octahydro-3aH-4,6-methanoisoindol-3a-yl)methyl p-tolylcarbamate], for which the pIC50 is 5.30 to 6.00.
As to `Cc1ccc(NC(=O)OC[C@]23CN(S(=O)(=O)c4ccc(OC(F)(F)F)cc4)C[C@H]2C[C@H]2C[C@@H]3C2(C)C)cc1` [compound 34, ((3aS,4R,6R,7aS)-5,5-dimethyl-2-((4-(trifluoromethoxy)phenyl)sulfonyl)octahydro-3aH-4,6-methanoisoindol-3a-yl)methyl p-tolylcarbamate], the pIC50 is 5.30 to 6.00.
Regarding `Cc1ccc(NC(=O)OC[C@]23CN(S(=O)(=O)c4ccc(C5(C(F)(F)F)N=N5)cc4)C[C@H]2C[C@H]2C[C@@H]3C2(C)C)cc1` [compound 35, ((3aS,4R,6R,7aS)-5,5-dimethyl-2-((4-(3-(trifluoromethyl)-3H-diazirin-3-yl)phenyl)sulfonyl)octahydro-3aH-4,6-methanoisoindol-3a-yl)methyl p-tolylcarbamate], the pIC50 was 5.30 to 6.00.
Consider `Cc1ccc(NC(=O)OC[C@]23CN(S(=O)(=O)c4ccccc4Br)C[C@H]2C[C@H]2C[C@@H]3C2(C)C)cc1` [compound 36, ((3aS,4R,6R,7aS)-2-((2-bromophenyl)sulfonyl)-5,5-dimethyloctahydro-3aH-4,6-methanoisoindol-3a-yl)methyl p-tolylcarbamate], for which the pIC50 was 5.00 to 5.30.
Take `CC1(C)[C@H]2C[C@@H]3CN(S(=O)(=O)c4ccccc4)C[C@]3(COC(=O)Nc3ccc(I)cc3)[C@@H]1C2` [compound 37, ((3aS,4R,6R,7aS)-5,5-dimethyl-2-(phenylsulfonyl)octahydro-3aH-4,6-methanoisoindol-3a-yl)methyl (4-iodophenyl)carbamate]: the pIC50 is 5.30 to 6.00.
Take `CC1(C)[C@H]2C[C@@H]3CN(S(=O)(=O)c4ccc5ccccc5c4)C[C@]3(COC(=O)Nc3ccc(I)cc3)[C@@H]1C2` [compound 38, ((3aS,4R,6R,7aS)-5,5-dimethyl-2-(naphthalen-2-ylsulfonyl)octahydro-3aH-4,6-methanoisoindol-3a-yl)methyl (4-iodophenyl)carbamate]: the pIC50 is 6.00 to 6.70.
Take `Cc1ccccc1S(=O)(=O)N1C[C@H]2C[C@H]3C[C@H](C3(C)C)[C@@]2(COC(=O)Nc2ccc(I)cc2)C1` [compound 39, ((3aS,4R,6R,7aS)-5,5-dimethyl-2-(o-tolylsulfonyl)octahydro-3aH-4,6-methanoisoindol-3a-yl)methyl (4-iodophenyl)carbamate]: the pIC50 is 6.00 to 6.70.
On to `Cc1cccc(S(=O)(=O)N2C[C@H]3C[C@H]4C[C@H](C4(C)C)[C@@]3(COC(=O)Nc3ccc(I)cc3)C2)c1` [compound 40, ((3aS,4R,6R,7aS)-5,5-dimethyl-2-(m-tolylsulfonyl)octahydro-3aH-4,6-methanoisoindol-3a-yl)methyl (4-iodophenyl)carbamate], for which the pIC50 is 5.30 to 6.00.
As to `Cc1ccc(S(=O)(=O)N2C[C@H]3C[C@H]4C[C@H](C4(C)C)[C@@]3(COC(=O)Nc3ccc(I)cc3)C2)cc1` [compound 41, ((3aS,4R,6R,7aS)-5,5-dimethyl-2-tosyloctahydro-3aH-4,6-methanoisoindol-3a-yl)methyl (4-iodophenyl)carbamate], the pIC50 is 6.00 to 6.70.
`CC(C)c1ccc(S(=O)(=O)N2C[C@H]3C[C@H]4C[C@H](C4(C)C)[C@@]3(COC(=O)Nc3ccc(I)cc3)C2)cc1` [compound 43, ((3aS,4R,6R,7aS)-2-((4-isopropylphenyl)sulfonyl)-5,5-dimethyloctahydro-3aH-4,6-methanoisoindol-3a-yl)methyl (4-iodophenyl)carbamate]: the pIC50 was above 6.70.
On to `CC1(C)[C@H]2C[C@@H]3CN(S(=O)(=O)c4ccc(-c5ccccc5)cc4)C[C@]3(COC(=O)Nc3ccc(I)cc3)[C@@H]1C2` [compound 44, ((3aS,4R,6R,7aS)-2-([1,1'-biphenyl]-4-ylsulfonyl)-5,5-dimethyloctahydro-3aH-4,6-methanoisoindol-3a-yl)methyl (4-iodophenyl)carbamate], for which the pIC50 is 6.00 to 6.70.
As to `CC1(C)[C@H]2C[C@@H]3CN(S(=O)(=O)c4ccc(C5CCCCC5)cc4)C[C@]3(COC(=O)Nc3ccc(I)cc3)[C@@H]1C2` [compound 45, ((3aS,4R,6R,7aS)-2-((4-cyclohexylphenyl)sulfonyl)-5,5-dimethyloctahydro-3aH-4,6-methanoisoindol-3a-yl)methyl (4-iodophenyl)carbamate], the pIC50 is 5.30 to 6.00.
With `CC1(C)CCC(C)(C)c2cc(S(=O)(=O)N3C[C@H]4C[C@H]5C[C@H](C5(C)C)[C@@]4(COC(=O)Nc4ccc(I)cc4)C3)ccc21` [compound 46], the pIC50 was 6.00 to 6.70.

(Values after EP4670717A1, “PYRROLIDINE-FUSED MYRTANOL DERIVATIVES AS INHIBITORS AND/OR DEGRADERS OF IDO1 UND USE THEREOF” (Max-Planck-Gesellschaft zur Förderung der Wissenschaften …, priority 2024, dated 2025).)
